Broadly, the IC50 is the concentration that inhibits the measured activity by half.

Some results are limits rather than exact numbers.

Results on 22 molecules are retold here after patent publication US8163793B2, “Proline derivatives” (Hoffman-La Roche Inc., priority 2009, dated 2012).

For one test, the target named is Cat L (UniProt P07711). As to the kind of experiment: Cathepsin enzyme inhibition assay (fluorogenic peptide substrate Z-Val-Val-Arg-AMC), Cathepsin L. It is filed as biochemical, human and mouse. Particulars: enzyme 1 nM, substrate 20 μM, pH 6.5; read-out: CatL IC50. An outline of the steps: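 Cathepsin L at 1 nM was mixed with compound, then started with 20 μM Z-Val-Val-Arg-AMC in pH 6.5 potassium phosphate with EDTA, Triton X-100 and 5 mM DTT. AMC fluorescence (ex 360/em 465 nm) was followed over 20 min. IC50 is given in μM.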

Another test has as its target Cathepsin S (UniProt P25774). As to the kind of experiment: Cathepsin enzyme inhibition assay (fluorogenic peptide substrate Z-Val-Val-Arg-AMC), Cathepsin S. The class given is biochemical, human and mouse. The note with it: enzyme 1 nM, substrate 20 μM, pH 6.5; read-out: CatS IC50. In outline: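 Human or mouse cathepsin S (1 nM) was run in 100 mM potassium phosphate pH 6.5 with 5 mM EDTA, 0.001% Triton X-100 and 5 mM DTT. The rise in AMC fluorescence from cleavage was measured, and IC50 values were calculated by standard methods and expressed in μM.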

Regarding `Cc1cc(N2C[C@H](S(=O)(=O)c3ccc(OCC(F)(F)F)cc3C(F)(F)F)C[C@H]2C(=O)NC2(C#N)CC2)n(C2CCC2)n1` [Example 391, (2S,4R)-1-(2-Cyclobutyl-5-methyl-2H-pyrazol-3-yl)-4-[4-(2,2,2-trifluoro-ethoxy)-2-trifluoromethyl-benzenesulfonyl]-pyrrolidine-2-carboxylic acid (1-cyano-cyclopropyl)-amide], the IC50 on Cat L came out at 16700 nM; at Cathepsin S, 0.22 nM.
For `Cc1cc(N2C[C@H](S(=O)(=O)c3ccc(OCC(F)(F)F)cc3C(F)(F)F)C[C@@H]2C(=O)NC2(C#N)CC2)n(C2CCC2)n1` [Example 392, (2R,4R)-1-(2-Cyclobutyl-5-methyl-2H-pyrazol-3-yl)-4-[4-(2,2,2-trifluoro-ethoxy)-2-trifluoromethyl-benzenesulfonyl]-pyrrolidine-2-carboxylic acid (1-cyano-cyclopropyl)-amide], in that order: at least 25000 nM and 0.91 nM.
For `Cn1nc(N2C[C@H](S(=O)(=O)c3ccccc3C(F)(F)F)C[C@H]2C(=O)NC2(C#N)CC2)cc1C1CCOCC1` [Example 393, (2S,4R)-1-[1-Methyl-5-(tetrahydro-pyran-4-yl)-1H-pyrazol-3-yl]-4-(2-trifluoromethyl-benzenesulfonyl)-pyrrolidine-2-carboxylic acid (1-cyano-cyclopropyl)-amide], the results for the IC50 at Cat L and on Cathepsin S were at least 25000 nM and 3.75 nM, respectively.
The matching figures for `N#CC1(NC(=O)[C@@H]2C[C@@H](S(=O)(=O)c3ccccc3C(F)(F)F)CN2c2ccc(F)c(Cl)c2)CC1` [Example 394, (2S,4R)-1-(3-Chloro-4-fluoro-phenyl)-4-(2-trifluoromethyl-benzenesulfonyl)-pyrrolidine-2-carboxylic acid (1-cyano-cyclopropyl)-amide]: at least 25000 nM and 2.95 nM.
The matching figures for `N#CC1(NC(=O)[C@H]2C[C@H](S(=O)(=O)c3ccccc3C(F)(F)F)CN2c2ccc(F)c(Cl)c2)CC1` [Example 395, (2R,4S)-1-(3-Chloro-4-fluoro-phenyl)-4-(2-trifluoromethyl-benzenesulfonyl)-pyrrolidine-2-carboxylic acid (1-cyano-cyclopropyl)-amide]: at least 25000 nM and 155 nM.
Turning to `Cc1cc(N2C[C@H](S(=O)(=O)c3ccc(F)cc3C(F)(F)F)C[C@H]2C(=O)NC2(C#N)CC2)n(C2CCOCC2)n1` [Example 396, (2S,4R)-4-(4-Fluoro-2-trifluoromethyl-benzenesulfonyl)-1-[5-methyl-2-(tetrahydro-pyran-4-yl)-2H-pyrazol-3-yl]-pyrrolidine-2-carboxylic acid (1-cyano-cyclopropyl)-amide], the IC50 was determined as 57500 nM on Cat L and 1.65 nM at Cathepsin S.
In the case of `N#CC1(NC(=O)[C@@H]2C[C@@H](S(=O)(=O)c3ccccc3C(F)(F)F)CN2c2cc(C3CCOCC3)nn2C2CCC2)CC1` [Example 397, (2S,4R)-1-[2-Cyclobutyl-5-(tetrahydro-pyran-4-yl)-2H-pyrazol-3-yl]-4-(2-trifluoromethyl-benzenesulfonyl)-pyrrolidine-2-carboxylic acid (1-cyano-cyclopropyl)-amide], the values for the IC50 at Cat L and on Cathepsin S were 7200 nM and 0.435 nM, respectively.
Consider `N#CC1(NC(=O)[C@@H]2C[C@@H](S(=O)(=O)c3ccccc3C(F)(F)F)CN2c2cc(C3CC3)nn2C2CCC2)CC1` [Example 398, (2S,4R)-1-(2-Cyclobutyl-5-cyclopropyl-2H-pyrazol-3-yl)-4-(2-trifluoromethyl-benzenesulfonyl)-pyrrolidine-2-carboxylic acid (1-cyano-cyclopropyl)-amide], for which the IC50 at Cat L was found to be 18800 nM; at Cathepsin S it was 0.555 nM.
With `N#CC1(NC(=O)[C@@H]2C[C@@H](S(=O)(=O)c3ccccc3Cl)CN2c2nnc(C(F)(F)F)s2)CC1` [Example 399], the IC50 at Cat L is above 25000 nM; at Cathepsin S, 0.98 nM.
For the molecule `N#CC1(NC(=O)[C@@H]2C[C@@H](S(=O)(=O)c3ccccc3C(F)(F)F)CN2c2cc(C3CC3)n[nH]2)CC1` [Example 400, (2S,4R)-1-(5-Cyclopropyl-2H-pyrazol-3-yl)-4-(2-trifluoromethyl-benzenesulfonyl)-pyrrolidine-2-carboxylic acid (1-cyano-cyclopropyl)-amide], the IC50 at Cat L was at least 25000 nM; on Cathepsin S, 3.3 nM.
Regarding `Cc1cc(N2C[C@H](S(=O)(=O)c3ccc(N4CCN(C)CC4)cc3Cl)C[C@H]2C(=O)NC2(C#N)CC2)n(C2CCC2)n1` [Example 401, (2S,4R)-4-[2-Chloro-4-(4-methyl-piperazin-1-yl)-benzenesulfonyl]-1-(2-cyclobutyl-5-methyl-2H-pyrazol-3-yl)-pyrrolidine-2-carboxylic acid (1-cyano-cyclopropyl)-amide], the figures for the IC50 on Cat L and at Cathepsin S were 1080 nM and 0.46 nM, respectively.
`CS(=O)(=O)c1cccc(N2C[C@H](S(=O)(=O)c3ccccc3C(F)(F)F)C[C@H]2C(=O)NC2(C#N)CC2)c1` [Example 402, (2S,4R)-1-(3-Methanesulfonyl-phenyl)-4-(2-trifluoromethyl-benzenesulfonyl)-pyrrolidine-2-carboxylic acid (1-cyano-cyclopropyl)-amide]: the IC50 was at least 25000 nM on Cat L and 1.4 nM on Cathepsin S.
Regarding `N#CC1(NC(=O)[C@@H]2C[C@@H](S(=O)(=O)c3ccccc3C(F)(F)F)CN2c2nc(Cl)ns2)CC1` [Example 405, (2S,4R)-1-(3-Chloro-[1,2,4]thiadiazol-5-yl)-4-(2-trifluoromethyl-benzenesulfonyl)-pyrrolidine-2-carboxylic acid (1-cyano-cyclopropyl)-amide], the IC50 on Cat L is at least 25000 nM; at Cathepsin S, 0.935 nM.
For `Cc1cc(N2C[C@H](S(=O)(=O)c3ccccc3C(F)(F)F)C[C@H]2C(=O)NC2(C#N)CC2)n(C2CCN(C(=O)OCc3ccccc3)CC2)n1` [Example 406, 4-{5-[(2S,4R)-2-(1-Cyano-cyclopropylcarbamoyl)-4-(2-trifluoromethyl-benzenesulfonyl)-pyrrolidin-1-yl]-3-methyl-pyrazol-1-yl}-piperidine-1-carboxylic acid Benzyl Ester], in that order: at least 25000 nM and 4 nM.
The matching figures for `Cc1cc(N2C[C@H](S(=O)(=O)c3ccccc3C(F)(F)F)C[C@H]2C(=O)NC2(C#N)CC2)n(C2CCNCC2)n1` [Example 407, (2S,4R)-1-(5-Methyl-2-piperidin-4-yl-2H-pyrazol-3-yl)-4-(2-trifluoromethyl-benzenesulfonyl)-pyrrolidine-2-carboxylic acid (1-cyano-cyclopropyl)-amide]: at least 25000 nM and 38.5 nM.
The matching figures for `CS(=O)(=O)[C@@H]1C[C@@H](C(=O)NC2(C#N)CC2)N(C(=O)C2(c3ccc(Cl)cc3)CC2)C1` [Example 409, (2S,4R)-1-[1-(4-Chloro-phenyl)-cyclopropanecarbonyl]-4-methanesulfonyl-pyrrolidine-2-carboxylic acid (1-cyano-cyclopropyl)-amide]: at least 25000 nM and 2530 nM.
Take `N#CC1(NC(=O)[C@@H]2C[C@@H](S(=O)(=O)c3ccccc3Cl)CN2C(=O)c2n[nH]c3cc(Cl)ccc23)CC1` [Example 410, (2S,4R)-4-(2-Chloro-benzenesulfonyl)-1-(6-chloro-1H-indazole-3-carbonyl)-pyrrolidine-2-carboxylic acid (1-cyano-cyclopropyl)-amide]: the IC50 is 29700 nM at Cat L and 4.8 nM at Cathepsin S.
The matching figures for `N#CC1(NC(=O)[C@@H]2C[C@@H](S(=O)(=O)c3ccccc3Cl)CN2C(=O)[C@H](O)c2ccc(Cl)cc2)CC1` [Example 411, (2S,4R)-4-(2-Chloro-benzenesulfonyl)-1-[(R)-2-(4-chloro-phenyl)-2-hydroxy-acetyl]-pyrrolidine-2-carboxylic acid (1-cyano-cyclopropyl)-amide]: 550 nM and 0.525 nM.
As for `CC(C)(C)OC(=O)N[C@@H](C(=O)N1C[C@H](S(=O)(=O)c2ccccc2Cl)C[C@H]1C(=O)NC1(C#N)CC1)c1ccc(Cl)cc1` [Example 412, [(R)-2-[(2S,4R)-4-(2-Chloro-benzenesulfonyl)-2-(1-cyano-cyclopropylcarbamoyl)-pyrrolidin-1-yl]-1-(4-chloro-phenyl)-2-oxo-ethyl]-carbamic Acid Tert-butyl ester], the IC50 worked out at 785 nM at Cat L and 2.75 nM at Cathepsin S.
The matching figures for `Cc1csc(C2(C(=O)N3C[C@H](S(=O)(=O)c4ccccc4Cl)C[C@H]3C(=O)NC3(C#N)CC3)CC2)n1` [Example 413, (2S,4R)-4-(2-Chloro-benzenesulfonyl)-1-[1-(4-methyl-thiazol-2-yl)-cyclopropanecarbonyl]-pyrrolidine-2-carboxylic acid (1-cyano-cyclopropyl)-amide]: 1100 nM and 0.31 nM.
The matching figures for `N#CC1(NC(=O)[C@@H]2C[C@@H](S(=O)(=O)c3ccccc3Cl)CN2C(=O)Cc2ncc(Cl)cn2)CC1` [Example 414, (2S,4R)-4-(2-Chloro-benzenesulfonyl)-1-[2-(5-chloro-pyrimidin-2-yl)-acetyl]-pyrrolidine-2-carboxylic acid (1-cyano-cyclopropyl)-amide]: 5450 nM and 0.295 nM.
For the molecule `Cc1cc(N2C[C@H](S(=O)(=O)c3ccc(N4CC(F)(F)C4)cc3C(F)(F)F)C[C@H]2C(=O)NC2(C#N)CC2)n(C2CCC2)n1` [Example 415, (2S,4R)-1-(2-Cyclobutyl-5-methyl-2H-pyrazol-3-yl)-4-[4-(3,3-difluoro-azetidin-1-yl)-2-trifluoromethyl-benzenesulfonyl]-pyrrolidine-2-carboxylic acid (1-cyano-cyclopropyl)-amide], the IC50 at Cat L is 11700 nM; at Cathepsin S, 0.215 nM.
